The values below come from patent US20230165242A1, “RODENTICIDAL BAIT AND METHOD OF CONTROLLING TARGET HARMFUL RODENTS” (priority 2020, published 2023).

Type in all cases: in vivo, rat
In experiment [1] the test system is rats that are homozygotic carriers of the L120Q mutation. In words: Relative toxicity of cholecalciferol, single gavage dose, L120Q rats. Particulars: single gavage dose 30 mg/kg; 20 days. The source says:
Warfarin-sensitive Sprague-Dawley rats (20 male rats and 20 female rats), male and female rats that are homozygotic carriers of the L120Q mutation, male and female Sprague-Dawley rats that are homozygotic carriers of the Y139F mutation and male and female brown rats (Rattus norvegicus) that are homozygotic carriers of the Y1 39C mutation are acclimatized for 5 days in the presence of a conventional solid feed and water in unlimited amounts. The rats are fed by gavage with a single dose of a gavage solution containing cholecalciferol (Sigma-Aldrich, France) in a solvent consisting of 95% (v/v) of oil and 5% (v/v) of DMSO. The rats are fed with a conventional solid feed and water in unlimited amounts. The amount of cholecalciferol administered is 30 mg of cholecalciferol per kilogram of body weight of the rat fed by gavage. The percentage of rats surviving gavage for 20 days, counting from the first day of gavage, is noted daily. The results given in Table 4 hereunder describe the mortality observed (“SD”, Sprague-Dawley). The amount of cholecalciferol ingested by the rodents during gavage corresponds to consumption by these rodents of a bait assayed at 300 ppm of cholecalciferol.

Experiment [2] relates to warfarin-sensitive male OFA-Sprague-Dawley rats. In words: Synergy of bromadiolone and cholecalciferol, gavage, survival. As to conditions: gavage 5 consecutive days; bromadiolone 0.1 mg/kg alone, cholecalciferol 7.5 mg/kg alone, or both combined; after 20 days of observation. The text has this:
A group of 10 warfarin-sensitive male OFA-Sprague-Dawley rats (Charles River, L′Arbresles, France), aged 10 weeks and with a body weight between 160 and 180 g, are fed by gavage for 5 consecutive days with a gavage solution containing bromadiolone (LIPHATECH, France) and cholecalciferol (Sigma-Aldrich, France) in a solvent consisting of 95% (v/v) of oil and 5% (v/v) of DMSO. During this period of gavage, the rats are fed with a conventional solid feed and water in unlimited amounts. The rats are fed by gavage with a volume of this gavage solution so as to administer an amount of bromadiolone corresponding to 0.1 mg of bromadiolone per kilogram of body weight of the rat fed by gavage and an amount of cholecalciferol corresponding to 7.5 mg of cholecalciferol per kilogram of body weight of the rat fed by gavage. The rats in two control groups, each consisting of 10 male OFA-Sprague-Dawley rats, are fed by gavage in the same conditions with gavage solutions containing, respectively, bromadiolone alone so as to administer an amount of bromadiolone corresponding to 0.1 mg of bromadiolone per kilogram of body weight of the rat fed by gavage and cholecalciferol alone so as to administer an amount of cholecalciferol corresponding to 7.5 mg of cholecalciferol per kilogram of body weight of the rat fed by gavage. […]

The test system of experiment [3] is Female Sprague-Dawley rats that are homozygotic carriers of the Y139F mutation in the Vkorc1 gene. Briefly: Synergy of difethialone and cholecalciferol on warfarin-resistant female Sprague-Dawley Y139F rats. Particulars: gavage once a day for 3 days; difethialone 0.125 mg/kg alone, cholecalciferol 7.5 mg/kg alone, or both combined; 22 days of observation. The text has this: Female Sprague-Dawley rats that are homozygotic carriers of the Y139F mutation in the Vkorc1 gene, aged 10 weeks, are acclimatized for 5 days in the presence of a conventional solid feed and water in unlimited amounts. These female Sprague-Dawley Y139F rats are fed by gavage once a day for 3 consecutive days with a gavage solution containing difethialone (LIPHATECH, France) and cholecalciferol (Sigma-Aldrich, France) in a solvent consisting of 95% (v/v) of oil and 5% (v/v) of DMSO. During this period of gavage, the rats are fed with a conventional solid feed and water in unlimited amounts. The amounts of difethialone and cholecalciferol administered are 0.125 mg per kilogram of body weight of the rat fed by gavage and 7.5 mg per kilogram of body weight of the rat fed by gavage, respectively. The rats in two control groups, each consisting of OFA-Sprague-Dawley […] rats, are fed by gavage in the same conditions with gavage solutions containing, respectively, difethialone alone so as to administer an amount of difethialone corresponding to 0.125 mg per kilogram of body weight of the rat fed by gavage and cholecalciferol alone so as to administer an amount of cholecalciferol corresponding to 7.5 mg per kilogram of body weight of the rat fed by gavage. The percentage of rats surviving gavage is noted daily for 21 days counting from the first day of gavage. […]

In the case of `C=C1CC[C@H](O)C/C1=C/C=C1\CCC[C@]2(C)[C@@H]([C@H](C)CCCC(C)C)CC[C@@H]12` [cholecalciferol], in experiment [1], the “Female mortality, %” value is given as 5%. Further, the “Male mortality, %” value in experiment [1] came out at 15%. Also, the “percentage of rats surviving” value in experiment [2] turned out to be 70%; in experiment [3] it was 90%.
